Test results reported in ChEMBL document CHEMBL5465560, “Selectivity Literature for EUbOPEN Chemogenomic Library” (2024).

Assays:
[1] = molecular target: T1, Protein kinase C epsilon type (Homo sapiens) (UniProt Q02156); experiment: Selectivity interaction (KinomeScan (DiscoverX)) EUB0000666a PRKCE; details: at 10 µM
T1 sequence (whole entry): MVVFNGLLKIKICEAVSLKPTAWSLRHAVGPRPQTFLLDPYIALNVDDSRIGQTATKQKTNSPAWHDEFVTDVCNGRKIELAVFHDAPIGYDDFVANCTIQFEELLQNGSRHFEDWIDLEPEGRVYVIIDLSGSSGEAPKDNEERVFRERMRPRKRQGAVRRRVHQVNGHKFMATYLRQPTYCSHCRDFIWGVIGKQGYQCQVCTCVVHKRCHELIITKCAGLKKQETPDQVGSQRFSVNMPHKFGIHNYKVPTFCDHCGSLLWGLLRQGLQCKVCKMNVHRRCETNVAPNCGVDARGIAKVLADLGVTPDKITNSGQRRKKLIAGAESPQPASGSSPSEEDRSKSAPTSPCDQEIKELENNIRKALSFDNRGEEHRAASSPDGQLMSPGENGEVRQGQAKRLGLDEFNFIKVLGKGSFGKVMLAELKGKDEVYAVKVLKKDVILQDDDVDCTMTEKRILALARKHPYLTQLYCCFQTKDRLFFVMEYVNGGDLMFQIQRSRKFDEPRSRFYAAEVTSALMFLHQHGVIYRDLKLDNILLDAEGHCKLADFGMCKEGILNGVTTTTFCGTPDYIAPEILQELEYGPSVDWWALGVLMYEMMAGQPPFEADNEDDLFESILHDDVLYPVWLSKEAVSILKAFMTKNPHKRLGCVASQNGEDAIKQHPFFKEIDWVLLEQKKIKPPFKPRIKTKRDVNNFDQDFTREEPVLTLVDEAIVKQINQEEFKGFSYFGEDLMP

[2] = molecular target: T2, Histone-lysine N-methyltransferase EHMT1 (Homo sapiens) (UniProt Q9H9B1); experiment: Selectivity interaction (Transferase panel (protein, RNA, and DNA methyltransferases. and EP300 (acetyltransferase))) EUB0000270b EHMT1
T2 sequence (whole entry): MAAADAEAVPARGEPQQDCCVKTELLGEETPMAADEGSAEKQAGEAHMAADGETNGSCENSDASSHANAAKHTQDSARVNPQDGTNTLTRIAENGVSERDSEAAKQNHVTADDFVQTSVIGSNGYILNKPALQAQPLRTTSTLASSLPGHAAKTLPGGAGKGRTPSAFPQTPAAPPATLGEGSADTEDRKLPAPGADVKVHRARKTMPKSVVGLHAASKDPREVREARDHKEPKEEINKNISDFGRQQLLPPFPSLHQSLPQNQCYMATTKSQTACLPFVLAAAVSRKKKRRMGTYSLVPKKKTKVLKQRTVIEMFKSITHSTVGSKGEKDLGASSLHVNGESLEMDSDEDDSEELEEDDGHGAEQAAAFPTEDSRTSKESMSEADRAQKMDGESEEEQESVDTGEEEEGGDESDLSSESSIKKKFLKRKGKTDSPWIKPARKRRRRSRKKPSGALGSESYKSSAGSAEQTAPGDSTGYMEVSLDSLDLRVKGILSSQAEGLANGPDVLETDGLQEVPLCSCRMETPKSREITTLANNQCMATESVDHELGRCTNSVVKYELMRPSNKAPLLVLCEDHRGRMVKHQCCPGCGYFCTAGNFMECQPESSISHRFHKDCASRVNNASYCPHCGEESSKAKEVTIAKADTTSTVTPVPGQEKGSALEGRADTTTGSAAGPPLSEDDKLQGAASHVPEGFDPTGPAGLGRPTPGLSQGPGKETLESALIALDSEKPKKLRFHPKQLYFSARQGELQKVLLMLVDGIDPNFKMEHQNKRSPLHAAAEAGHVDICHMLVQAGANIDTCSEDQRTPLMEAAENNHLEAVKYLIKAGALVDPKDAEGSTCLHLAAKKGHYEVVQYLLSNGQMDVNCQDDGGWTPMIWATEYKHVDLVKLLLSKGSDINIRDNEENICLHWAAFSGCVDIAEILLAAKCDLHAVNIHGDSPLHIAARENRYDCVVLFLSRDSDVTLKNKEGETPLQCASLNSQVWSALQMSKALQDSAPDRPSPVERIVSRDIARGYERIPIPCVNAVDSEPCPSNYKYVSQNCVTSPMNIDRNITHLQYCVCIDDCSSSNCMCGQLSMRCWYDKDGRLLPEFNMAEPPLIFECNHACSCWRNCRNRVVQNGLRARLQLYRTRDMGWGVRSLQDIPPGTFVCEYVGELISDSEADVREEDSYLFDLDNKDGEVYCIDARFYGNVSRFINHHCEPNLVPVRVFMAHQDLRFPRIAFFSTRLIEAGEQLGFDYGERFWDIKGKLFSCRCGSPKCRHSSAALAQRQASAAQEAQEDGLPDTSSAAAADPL

[3] = molecular target: Kappa-type opioid receptor (Homo sapiens, UniProt P41145); experiment: Selectivity interaction (Panel of kinases, GPCRs, ion channels and transporters (enzymatic assay)) EUB0000223bCl OPRK1
[4] = molecular target: Mitogen-activated protein kinase 8 (Homo sapiens, UniProt P45983); experiment: Selectivity interaction (ActivX KiNativ screen (ex vivo kinase selectivity in human PBMCs)) EUB0001619a MAPK8; type: cell-based; details: PBMC, at 1 µM
[5] = molecular target: Receptor-type tyrosine-protein kinase FLT3 (Homo sapiens) (UniProt P36888); experiment: Selectivity interaction (KinomeScan (DiscoverX)) EUB0001619a FLT3; details: at 1 µM
[6] = molecular target: Protein-tyrosine kinase 2-beta (Homo sapiens) (UniProt Q14289); experiment: Selectivity interaction (KinomeScan (DiscoverX)) EUB0000618a PTK2B; details: at 10 µM
[7] = molecular target: 5-hydroxytryptamine receptor 2A (Homo sapiens, UniProt P28223); experiment: Selectivity interaction (Panel of kinases, GPCRs, ion channels and transporters (enzymatic assay)) EUB0000266bCl HTR2A
[8] = molecular target: Serine/threonine-protein kinase 10 (Homo sapiens) (UniProt O94804); experiment: Selectivity interaction (ActivX KiNativ screen (kinase selectivity in THP-1 cell lysates)) EUB0000639a STK10; type: subcellular; details: lysate, at 1 µM
[9] = molecular target: Serine/threonine-protein kinase tousled-like 2 (Homo sapiens) (UniProt Q86UE8); experiment: Selectivity interaction (ActivX KiNativ screen (kinase selectivity in THP-1 cell lysates)) EUB0000639a TLK2; type: subcellular; details: lysate, at 0.01 µM
[10] = molecular target: Phosphorylase b kinase gamma catalytic chain, skeletal muscle/heart isoform (Homo sapiens) (UniProt Q16816); experiment: Selectivity interaction (KinomeScan (DiscoverX)) EUB0000655a PHKG1; details: at 10 µM
[11] = molecular target: Serine/threonine-protein kinase pim-2 (Homo sapiens, UniProt Q9P1W9); experiment: Selectivity interaction (KinomeScan (DiscoverX)) EUB0000092b PIM2; details: at 10 µM
Chain of Serine/threonine-protein kinase pim-2 (Q9P1W9 whole entry, looked up): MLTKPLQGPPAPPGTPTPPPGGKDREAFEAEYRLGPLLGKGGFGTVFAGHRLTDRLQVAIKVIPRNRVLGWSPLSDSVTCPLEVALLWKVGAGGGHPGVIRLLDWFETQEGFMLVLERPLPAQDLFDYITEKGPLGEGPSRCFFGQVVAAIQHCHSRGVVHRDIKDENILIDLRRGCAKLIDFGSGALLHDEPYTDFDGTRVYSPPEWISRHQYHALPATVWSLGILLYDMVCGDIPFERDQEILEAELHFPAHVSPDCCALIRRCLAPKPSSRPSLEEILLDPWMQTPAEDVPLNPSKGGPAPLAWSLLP

Chain of Protein-tyrosine kinase 2-beta (Homo sapiens) (Q14289 whole entry, looked up): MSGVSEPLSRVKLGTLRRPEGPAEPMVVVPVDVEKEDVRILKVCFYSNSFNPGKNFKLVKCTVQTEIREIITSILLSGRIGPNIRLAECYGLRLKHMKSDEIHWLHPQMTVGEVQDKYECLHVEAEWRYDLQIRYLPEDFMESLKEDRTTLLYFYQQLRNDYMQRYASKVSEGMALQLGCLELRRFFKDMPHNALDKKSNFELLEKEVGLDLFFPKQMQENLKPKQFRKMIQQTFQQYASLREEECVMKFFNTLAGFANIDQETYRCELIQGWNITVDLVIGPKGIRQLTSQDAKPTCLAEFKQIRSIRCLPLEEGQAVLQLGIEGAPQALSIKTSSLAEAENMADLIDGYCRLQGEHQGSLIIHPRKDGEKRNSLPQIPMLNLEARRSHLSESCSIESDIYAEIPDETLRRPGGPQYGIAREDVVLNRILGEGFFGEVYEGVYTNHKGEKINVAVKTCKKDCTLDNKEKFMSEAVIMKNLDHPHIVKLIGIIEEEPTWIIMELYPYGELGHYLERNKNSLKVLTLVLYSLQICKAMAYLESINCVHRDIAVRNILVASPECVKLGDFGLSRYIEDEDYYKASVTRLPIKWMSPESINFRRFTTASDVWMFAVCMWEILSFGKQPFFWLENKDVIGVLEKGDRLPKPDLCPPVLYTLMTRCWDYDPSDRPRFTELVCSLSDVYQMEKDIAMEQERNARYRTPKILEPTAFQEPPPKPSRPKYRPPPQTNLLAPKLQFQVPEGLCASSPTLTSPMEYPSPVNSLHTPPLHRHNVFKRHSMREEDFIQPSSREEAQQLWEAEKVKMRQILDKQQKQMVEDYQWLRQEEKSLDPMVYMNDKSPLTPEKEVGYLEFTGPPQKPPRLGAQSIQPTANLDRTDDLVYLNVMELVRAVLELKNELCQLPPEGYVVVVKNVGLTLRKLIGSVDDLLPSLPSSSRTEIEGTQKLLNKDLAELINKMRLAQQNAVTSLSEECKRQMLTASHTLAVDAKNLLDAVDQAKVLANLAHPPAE
Chain of Kappa-type opioid receptor (P41145 whole entry): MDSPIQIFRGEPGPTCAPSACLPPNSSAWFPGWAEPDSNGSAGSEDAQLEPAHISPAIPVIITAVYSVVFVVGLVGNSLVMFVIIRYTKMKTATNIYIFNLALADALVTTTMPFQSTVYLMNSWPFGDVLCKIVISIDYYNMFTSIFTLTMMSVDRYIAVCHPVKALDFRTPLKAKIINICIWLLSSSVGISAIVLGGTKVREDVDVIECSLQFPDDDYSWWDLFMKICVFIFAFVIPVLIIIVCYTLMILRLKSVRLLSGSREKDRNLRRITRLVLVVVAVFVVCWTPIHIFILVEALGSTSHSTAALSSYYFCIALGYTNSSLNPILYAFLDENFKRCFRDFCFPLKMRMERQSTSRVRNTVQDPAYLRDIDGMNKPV
Chain of Mitogen-activated protein kinase 8 (P45983 whole entry): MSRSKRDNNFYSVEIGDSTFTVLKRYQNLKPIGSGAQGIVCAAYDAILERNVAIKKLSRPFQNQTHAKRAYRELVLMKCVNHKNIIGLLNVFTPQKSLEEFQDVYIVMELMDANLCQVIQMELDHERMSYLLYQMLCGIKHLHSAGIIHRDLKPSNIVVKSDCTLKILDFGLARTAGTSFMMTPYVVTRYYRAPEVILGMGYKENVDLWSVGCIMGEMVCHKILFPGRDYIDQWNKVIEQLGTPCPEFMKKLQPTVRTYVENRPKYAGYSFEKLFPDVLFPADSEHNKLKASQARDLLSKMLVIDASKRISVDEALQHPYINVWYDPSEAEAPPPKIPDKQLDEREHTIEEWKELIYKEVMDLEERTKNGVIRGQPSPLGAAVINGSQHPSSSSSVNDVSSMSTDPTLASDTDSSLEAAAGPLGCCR
Chain of 5-hydroxytryptamine receptor 2A (P28223 whole entry): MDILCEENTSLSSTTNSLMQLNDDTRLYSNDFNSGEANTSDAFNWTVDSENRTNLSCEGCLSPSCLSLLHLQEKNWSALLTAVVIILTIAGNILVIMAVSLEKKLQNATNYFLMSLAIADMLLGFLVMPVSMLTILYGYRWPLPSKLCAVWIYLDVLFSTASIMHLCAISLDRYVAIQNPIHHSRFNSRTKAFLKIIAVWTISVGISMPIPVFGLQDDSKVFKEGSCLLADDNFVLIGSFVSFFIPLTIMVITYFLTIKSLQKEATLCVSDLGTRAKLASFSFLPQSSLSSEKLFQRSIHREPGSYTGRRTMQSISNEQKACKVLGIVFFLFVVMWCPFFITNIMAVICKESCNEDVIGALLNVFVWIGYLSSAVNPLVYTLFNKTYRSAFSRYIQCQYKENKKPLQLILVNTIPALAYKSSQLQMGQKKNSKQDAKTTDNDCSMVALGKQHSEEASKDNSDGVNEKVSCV
Chain of Receptor-type tyrosine-protein kinase FLT3 (Homo sapiens) (P36888 whole entry): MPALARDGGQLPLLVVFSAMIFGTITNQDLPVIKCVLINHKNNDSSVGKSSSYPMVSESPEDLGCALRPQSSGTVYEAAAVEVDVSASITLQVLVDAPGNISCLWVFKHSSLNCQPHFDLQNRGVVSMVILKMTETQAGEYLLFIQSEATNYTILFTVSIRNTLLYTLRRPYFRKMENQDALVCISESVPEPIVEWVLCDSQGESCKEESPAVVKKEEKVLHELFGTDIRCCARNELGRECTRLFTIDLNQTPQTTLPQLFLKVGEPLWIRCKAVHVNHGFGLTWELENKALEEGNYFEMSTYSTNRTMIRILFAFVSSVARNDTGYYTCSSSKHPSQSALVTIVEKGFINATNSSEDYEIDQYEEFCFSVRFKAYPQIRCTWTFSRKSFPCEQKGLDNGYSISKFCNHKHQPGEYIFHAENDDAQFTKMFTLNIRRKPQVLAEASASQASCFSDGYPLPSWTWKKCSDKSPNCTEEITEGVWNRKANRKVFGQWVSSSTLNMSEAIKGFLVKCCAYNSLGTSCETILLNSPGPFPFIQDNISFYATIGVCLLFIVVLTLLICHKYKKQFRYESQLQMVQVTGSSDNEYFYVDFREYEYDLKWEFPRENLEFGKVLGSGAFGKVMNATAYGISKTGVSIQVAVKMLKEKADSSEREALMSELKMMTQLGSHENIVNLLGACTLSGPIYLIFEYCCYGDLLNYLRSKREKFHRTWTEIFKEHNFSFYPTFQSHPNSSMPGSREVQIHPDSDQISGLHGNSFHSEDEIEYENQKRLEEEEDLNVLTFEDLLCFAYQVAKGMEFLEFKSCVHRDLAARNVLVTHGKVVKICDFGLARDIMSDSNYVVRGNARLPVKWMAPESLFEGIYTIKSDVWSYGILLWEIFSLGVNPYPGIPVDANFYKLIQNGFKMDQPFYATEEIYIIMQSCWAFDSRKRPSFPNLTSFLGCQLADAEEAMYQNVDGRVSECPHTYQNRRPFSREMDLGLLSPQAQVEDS
Chain of Phosphorylase b kinase gamma catalytic chain, skeletal muscle/heart isoform (Homo sapiens) (Q16816 whole entry, looked up, canonical isoform): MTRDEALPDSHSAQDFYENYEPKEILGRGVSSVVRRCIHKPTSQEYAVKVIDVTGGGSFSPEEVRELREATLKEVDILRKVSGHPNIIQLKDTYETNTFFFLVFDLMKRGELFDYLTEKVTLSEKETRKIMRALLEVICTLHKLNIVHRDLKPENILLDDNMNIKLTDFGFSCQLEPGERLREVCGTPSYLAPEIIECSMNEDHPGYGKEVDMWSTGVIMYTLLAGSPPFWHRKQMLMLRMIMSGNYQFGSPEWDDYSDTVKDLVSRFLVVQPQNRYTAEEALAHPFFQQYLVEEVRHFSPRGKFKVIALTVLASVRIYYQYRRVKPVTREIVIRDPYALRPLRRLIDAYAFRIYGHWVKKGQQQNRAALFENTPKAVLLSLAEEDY
Chain of Serine/threonine-protein kinase 10 (Homo sapiens) (O94804 whole entry, looked up): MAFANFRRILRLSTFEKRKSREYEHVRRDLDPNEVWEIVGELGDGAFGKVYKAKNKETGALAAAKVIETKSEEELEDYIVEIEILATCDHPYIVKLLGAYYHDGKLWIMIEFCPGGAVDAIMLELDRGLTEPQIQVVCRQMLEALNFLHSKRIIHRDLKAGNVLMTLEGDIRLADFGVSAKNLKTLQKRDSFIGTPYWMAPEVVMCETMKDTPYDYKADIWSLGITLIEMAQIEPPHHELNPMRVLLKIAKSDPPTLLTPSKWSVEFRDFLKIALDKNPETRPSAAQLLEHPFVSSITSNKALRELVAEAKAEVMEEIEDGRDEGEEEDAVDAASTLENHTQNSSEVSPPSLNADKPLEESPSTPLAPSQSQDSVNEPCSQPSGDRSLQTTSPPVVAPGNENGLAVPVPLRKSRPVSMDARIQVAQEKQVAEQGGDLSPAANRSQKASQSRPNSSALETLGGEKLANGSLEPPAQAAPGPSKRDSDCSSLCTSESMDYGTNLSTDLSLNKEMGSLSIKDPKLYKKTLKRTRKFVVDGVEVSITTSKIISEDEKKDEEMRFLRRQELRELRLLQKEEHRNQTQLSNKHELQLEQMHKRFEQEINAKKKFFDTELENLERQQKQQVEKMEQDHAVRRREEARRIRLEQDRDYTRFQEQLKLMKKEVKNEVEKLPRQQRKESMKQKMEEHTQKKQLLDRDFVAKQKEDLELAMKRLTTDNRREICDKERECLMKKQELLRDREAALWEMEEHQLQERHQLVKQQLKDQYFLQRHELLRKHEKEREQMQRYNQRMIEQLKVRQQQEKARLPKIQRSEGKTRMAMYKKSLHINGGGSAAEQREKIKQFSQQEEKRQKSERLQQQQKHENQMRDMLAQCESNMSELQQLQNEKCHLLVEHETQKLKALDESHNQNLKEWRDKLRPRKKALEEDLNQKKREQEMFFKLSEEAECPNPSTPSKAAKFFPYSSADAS

Compound: O=C(NOC[C@H](O)CO)c1ccc(F)c(F)c1Nc1ccc(I)cc1F
- % of control [1]: 100%

Compound: Cc1cc(CN)cc(C)c1-c1ncn(C)c1-c1cncn1C
- % activity ([2]; at 1 µM): > 90%
- % activity ([2]; at 10 µM): > 80%

Compound: COc1cc(C(=O)N2CC[C@@H](O)[C@@H](N)C2)cc2nc(-c3cc4ccccc4n3CC3CC3)n(C)c12
- pXC50 [3]: 4.1 M

Compound: N#Cc1cccc(-c2c[nH]c3ncnc(N4CCOCC4)c23)c1
- % of inhibition [4]: 5%
- % of control [5]: 92%

Compound: O[C@H]1CC[C@H](Nc2ncc3nc(Nc4c(F)cc(F)cc4F)n([C@H]4CCOC4)c3n2)CC1
- % of control [6]: 91%

Compound: CCn1c(-c2nc3cc(C(=O)N4CCCC(N)C4)ccc3n2C)cc2ccccc21 (configuration not stated)
- pXC50 [7]: 5.3 M

Compound: CC[C@@H]1[C@H](F)C(=O)N[C@@H]1COc1nccc2cc(C(N)=O)c(OC)cc12 [ZIMLOVISERTIB]
- % of inhibition [8]: -16.6%
- % of inhibition [9]: 0.7%

Compound: CN(C)CCOc1ccc(-c2nc(-c3ccncc3)c(-c3ccc4c(c3)CC/C4=N\O)[nH]2)cc1
- % of control [10]: 94%

Compound: CCC(=O)N1CCN(c2ccc(-n3c(=O)ccc4cnc5ccc(-c6cnc7ccccc7c6)cc5c43)cc2C(F)(F)F)CC1
- % of control [11]: 62%
